{"source": "patent US10308937B2", "about": "“Combination long acting compositions and methods for Hepatitis C” (GlaxoSmithKline Intellectual Property (No. 2) Limited, priority 2014, dated 2019)", "origin": "cited, not measured here", "details": "patients treated at currently recommended doses", "data": [{"smiles": "NC(=O)c1ncn([C@@H]2O[C@H](CO)[C@@H](O)[C@H]2O)n1", "note": "[Ribavirin]", "values": [{"measurement": "patients with significant hemolysis", "result": "10-20 % of patients"}]}]}
